The text below walks through data of US20120107835A1, “METHOD FOR DETECTING BETA-AMYLOID USING AMINO ACID DIMERS” (E[…] TELECOMM[…] INSTITUTE, priority 2010, published 2012).

No end group written: not given here. *: point of attachment. Biotin = O=C1N[C@H]2[C@H](CS[C@H]2CCCCC(=O)*)N1

In this experiment the test system is causative β-amyloid (Aβ42). Kind of experiment: Sandwich ELISA detection of β-amyloid using biotinylated amino acid dimers instead of secondary antibody (absorbance at 450 nm). The format is binding. The settings on record: Aβ40 vs Aβ42, dimer 100 μM, FIG. 2. How it is done: Detection of β-amyloid was carried out using the biotinylated amino acid dimers prepared in Example 1, as follows.
Normal β-amyloid (Aβ40) and causative β-amyloid (Aβ42) were obtained from rPeptide (at Bogart, Ga., USA), and monoclonal antibodies specific for the β-amyloids(primary antibodies) were obtained from Covance (France). Each of the primary antibodies was mixed with sodium carbonate (pH 9.2) and the solution was added to a 96-well microplate for coating the wells (high-affinity F series, available from
NUNC, and then the microplate was washed with PBS or distilled water.
Meanwhile, each β-amyloid was dissolved in a sodium carbonate buffer (pH 9.4, Pierce) to a concentration of 1.0 mg/mL. For dilution, 100 μL of the β-amyloid solution was mixed with 9,900 μL of PBS. Each 200 μL of the resulting β-amyloid solution was dispensed into the wells of the 96-well microplate, and incubated for 4-hr at a room temperature so that β-amyloid binds to the primary antibody. Then, the plate was washed five times with PBS buffer (Pierce, at Rockford, Ill., USA), and 100 μL of the biotinylated amino acid dimer solution (amino acid dimer, dissolved in PBS to a concentration of 100 μM) was added to allow reaction for 1 hr. Each well was washed five times with PBS buffer, and 200 μL of streptavidin-HRP solution (diluted by 1:10,000, Pierce, at Rockford, Ill., USA) was added to allow reaction over 1 hr. After the reaction was completed, the plate was washed three times with PBS buffer, 100 μL of TMB substrate solution (KPL, USA) was added to allow reaction for 10-minute under a dark condition. Then, 50 μL of 15% hydrochloric acid was added to stop the reaction, and the absorbance of the reaction mixture at 450 nm was measured using a microplate reader (Bio-RAD, iMark).
In the case of Biotin-Ala-Arg [Dimer 1], the “difference of absorbance between Aβ40 and Aβ42” value (“difference” below) is “very significant”.

Regarding Biotin-Arg-Ile [Dimer 3], the “difference” value is recorded as “very significant”.

On to Biotin-Arg-Leu [Dimer 5], for which the “difference” value is recorded as “very significant”.

As for Biotin-Cys-Ser [Dimer 13], the “difference” value is recorded as “very significant”.
